# Reference: patent US8802597B2, “Herbicidal pyrimidines” (E I du Pont de Nemours and Company, priority 2003, dated 2014)
# How the values were obtained:
# [1] = test system: transplanted rice seedlings (Oryza sativa cv. ‘Japonica-M202’); experiment: Test E flooded paddy water application; type: in vivo; conditions: Flood, 21 days, scale 0 to 100 (0 no effect, 100 complete control); for Plant response rating, Rice, Transplanted: 16 g ai/ha
# Method in brief: (§1)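 Greenhouse pots of Tama silt loam with weeds and rice at 2.0–2.5-leaf stage, flooded to 3 cm; compounds applied directly into paddy water, depth maintained. Visual rating versus untreated controls after 21 days, 0 (no effect) to 100 (complete control); 29.5/26.7 °C, 16-h photoperiod.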
# [2] = test system: late watergrass (Echinochloa oryzicola); experiment: Test E flooded paddy water application; type: in vivo; conditions: Flood, 21 days, scale 0 to 100 (0 no effect, 100 complete control); for Plant response rating, Watergrass, Late: 16 g ai/ha
# Method in brief: as §1
# [3] = test system: rice flatsedge (Cyperus iria); experiment: Test E flooded paddy water application; type: in vivo; conditions: Flood, 21 days, scale 0 to 100 (0 no effect, 100 complete control); for Plant response rating, Flatsedge, Rice: 16 g ai/ha
# Method in brief: as §1
# [4] = test system: barnyardgrass (Echinochloa crus-galli); experiment: Test E flooded paddy water application; type: in vivo; conditions: Flood, 21 days, scale 0 to 100 (0 no effect, 100 complete control); for Plant response rating, Barnyardgrass: 16 g ai/ha
# Method in brief: as §1
# [5] = test system: junglerice (Echinochloa colona); experiment: Test E flooded paddy water application; type: in vivo; conditions: Flood, 21 days, scale 0 to 100 (0 no effect, 100 complete control); for Plant response rating, Junglerice: 16 g ai/ha
# Method in brief: as §1
# [6] = test system: bearded (brdd.) sprangletop (Leptochloa fusca ssp. fascicularis); experiment: Test E flooded paddy water application; type: in vivo; conditions: Flood, 21 days, scale 0 to 100 (0 no effect, 100 complete control); for Plant response rating, Sprangletop, Brdd.: 16 g ai/ha
# Method in brief: as §1
# [7] = test system: water seeded rice seedlings (Oryza sativa cv. ‘Japonica-M202’); experiment: Test E flooded paddy water application; type: in vivo; conditions: Flood, 21 days, scale 0 to 100 (0 no effect, 100 complete control); for Plant response rating, Rice, Water Seeded: 16 g ai/ha
# Method in brief: as §1
# [8] = test system: early watergrass (Echinochloa oryzoides); experiment: Test E flooded paddy water application; type: in vivo; conditions: Flood, 21 days, scale 0 to 100 (0 no effect, 100 complete control); for Plant response rating, Watergrass, Early: 16 g ai/ha
# Method in brief: as §1
# [9] = test system: smallflower umbrella sedge (Cyperus difformis); experiment: Test E flooded paddy water application; type: in vivo; conditions: Flood, 21 days, scale 0 to 100 (0 no effect, 100 complete control); for Plant response rating, Sedge, Umbrella: 16 g ai/ha
# Method in brief: as §1
# [10] = test system: ducksalad (Heteranthera limosa); experiment: Test E flooded paddy water application; type: in vivo; conditions: Flood, 21 days, scale 0 to 100 (0 no effect, 100 complete control); for Plant response rating, Ducksalad: 16 g ai/ha
# Method in brief: as §1
compound,measurement,setting,value
"CCOC(=O)c1nc(-c2ccc(Br)cc2)nc(N)c1Cl [Compound 94, ethyl 6-amino-2-(4-bromophenyl)-5-chloro-4-pyrimidinecarboxylate]",melting point,,136 to 137 °C
same,"Rice, Transplanted plant response rating",[1]; 32 g ai/ha,0
same,"Rice, Transplanted plant response rating",[1]; 64 g ai/ha,10
same,"Rice, Transplanted plant response rating",[1]; 125 g ai/ha,10
same,"Rice, Transplanted plant response rating",[1]; 250 g ai/ha,20
same,"Plant response rating, Rice, Transplanted",[1],0
same,"Watergrass, Late plant response rating",[2]; 32 g ai/ha,0
same,"Watergrass, Late plant response rating",[2]; 64 g ai/ha,0
same,"Watergrass, Late plant response rating",[2]; 125 g ai/ha,0
same,"Watergrass, Late plant response rating",[2]; 250 g ai/ha,0
same,"Plant response rating, Watergrass, Late",[2],0
same,"Flatsedge, Rice plant response rating",[3]; 32 g ai/ha,100
same,"Flatsedge, Rice plant response rating",[3]; 64 g ai/ha,100
same,"Flatsedge, Rice plant response rating",[3]; 125 g ai/ha,100
same,"Flatsedge, Rice plant response rating",[3]; 250 g ai/ha,100
same,"Plant response rating, Flatsedge, Rice",[3],100
same,Barnyardgrass plant response rating,[4]; 32 g ai/ha,0
same,Barnyardgrass plant response rating,[4]; 64 g ai/ha,0
same,Barnyardgrass plant response rating,[4]; 125 g ai/ha,0
same,Barnyardgrass plant response rating,[4]; 250 g ai/ha,0
same,"Plant response rating, Barnyardgrass",[4],0
same,Junglerice plant response rating,[5]; 32 g ai/ha,0
same,Junglerice plant response rating,[5]; 64 g ai/ha,0
same,Junglerice plant response rating,[5]; 125 g ai/ha,0
same,Junglerice plant response rating,[5]; 250 g ai/ha,0
same,"Plant response rating, Junglerice",[5],0
same,"Sprangletop, Brdd. plant response rating",[6]; 32 g ai/ha,0
same,"Sprangletop, Brdd. plant response rating",[6]; 64 g ai/ha,0
same,"Sprangletop, Brdd. plant response rating",[6]; 125 g ai/ha,20
same,"Sprangletop, Brdd. plant response rating",[6]; 250 g ai/ha,40
same,"Plant response rating, Sprangletop, Brdd.",[6],0
same,"Rice, Water Seeded plant response rating",[7]; 32 g ai/ha,0
same,"Rice, Water Seeded plant response rating",[7]; 125 g ai/ha,10
same,"Rice, Water Seeded plant response rating",[7]; 250 g ai/ha,10
same,"Plant response rating, Rice, Water Seeded",[7],0
same,"Watergrass, Early plant response rating",[8]; 32 g ai/ha,0
same,"Watergrass, Early plant response rating",[8]; 64 g ai/ha,0
same,"Watergrass, Early plant response rating",[8]; 125 g ai/ha,0
same,"Watergrass, Early plant response rating",[8]; 250 g ai/ha,0
same,"Plant response rating, Watergrass, Early",[8],0
same,"Sedge, Umbrella plant response rating",[9]; 32 g ai/ha,100
same,"Sedge, Umbrella plant response rating",[9]; 64 g ai/ha,100
same,"Sedge, Umbrella plant response rating",[9]; 125 g ai/ha,100
same,"Sedge, Umbrella plant response rating",[9]; 250 g ai/ha,100
same,"Plant response rating, Sedge, Umbrella",[9],100
same,Ducksalad plant response rating,[10]; 32 g ai/ha,100
same,Ducksalad plant response rating,[10]; 64 g ai/ha,100
same,Ducksalad plant response rating,[10]; 125 g ai/ha,100
same,Ducksalad plant response rating,[10]; 250 g ai/ha,100
same,"Plant response rating, Ducksalad",[10],100
"Nc1nc(-c2ccc(Br)cc2)nc(C(=O)O)c1Cl [Compound 95, 6-amino-2-(4-bromophenyl)-5-chloro-4-pyrimidinecarboxylic acid]",melting point,,157 to 158 °C (dec.)
same,"Rice, Transplanted plant response rating",[1]; 32 g ai/ha,0
same,"Rice, Transplanted plant response rating",[1]; 64 g ai/ha,0
same,"Rice, Transplanted plant response rating",[1]; 125 g ai/ha,0
same,"Rice, Transplanted plant response rating",[1]; 250 g ai/ha,15
same,"Plant response rating, Rice, Transplanted",[1],0
same,"Watergrass, Late plant response rating",[2]; 32 g ai/ha,0
same,"Watergrass, Late plant response rating",[2]; 64 g ai/ha,0
same,"Watergrass, Late plant response rating",[2]; 125 g ai/ha,0
same,"Watergrass, Late plant response rating",[2]; 250 g ai/ha,0
same,"Plant response rating, Watergrass, Late",[2],0
same,"Flatsedge, Rice plant response rating",[3]; 32 g ai/ha,0
same,"Flatsedge, Rice plant response rating",[3]; 64 g ai/ha,0
same,"Flatsedge, Rice plant response rating",[3]; 125 g ai/ha,0
same,"Flatsedge, Rice plant response rating",[3]; 250 g ai/ha,0
same,"Plant response rating, Flatsedge, Rice",[3],0
same,Barnyardgrass plant response rating,[4]; 32 g ai/ha,0
same,Barnyardgrass plant response rating,[4]; 64 g ai/ha,0
same,Barnyardgrass plant response rating,[4]; 125 g ai/ha,0
same,Barnyardgrass plant response rating,[4]; 250 g ai/ha,0
same,"Plant response rating, Barnyardgrass",[4],0
same,Junglerice plant response rating,[5]; 32 g ai/ha,0
same,Junglerice plant response rating,[5]; 64 g ai/ha,0
same,Junglerice plant response rating,[5]; 125 g ai/ha,0
same,Junglerice plant response rating,[5]; 250 g ai/ha,0
same,"Plant response rating, Junglerice",[5],0
same,"Sprangletop, Brdd. plant response rating",[6]; 32 g ai/ha,0
same,"Sprangletop, Brdd. plant response rating",[6]; 64 g ai/ha,0
same,"Sprangletop, Brdd. plant response rating",[6]; 125 g ai/ha,0
same,"Sprangletop, Brdd. plant response rating",[6]; 250 g ai/ha,0
same,"Plant response rating, Sprangletop, Brdd.",[6],0
same,"Rice, Water Seeded plant response rating",[7]; 32 g ai/ha,0
same,"Rice, Water Seeded plant response rating",[7]; 64 g ai/ha,0
same,"Rice, Water Seeded plant response rating",[7]; 125 g ai/ha,0
same,"Rice, Water Seeded plant response rating",[7]; 250 g ai/ha,15
same,"Plant response rating, Rice, Water Seeded",[7],0
same,"Watergrass, Early plant response rating",[8]; 32 g ai/ha,0
same,"Watergrass, Early plant response rating",[8]; 64 g ai/ha,0
same,"Watergrass, Early plant response rating",[8]; 125 g ai/ha,0
same,"Watergrass, Early plant response rating",[8]; 250 g ai/ha,0
same,"Plant response rating, Watergrass, Early",[8],0
same,"Sedge, Umbrella plant response rating",[9]; 32 g ai/ha,95
same,"Sedge, Umbrella plant response rating",[9]; 64 g ai/ha,95
same,"Sedge, Umbrella plant response rating",[9]; 125 g ai/ha,95
same,"Sedge, Umbrella plant response rating",[9]; 250 g ai/ha,95
same,"Plant response rating, Sedge, Umbrella",[9],0
same,Ducksalad plant response rating,[10]; 32 g ai/ha,100
same,Ducksalad plant response rating,[10]; 64 g ai/ha,100
same,Ducksalad plant response rating,[10]; 125 g ai/ha,100
same,Ducksalad plant response rating,[10]; 250 g ai/ha,100
same,"Plant response rating, Ducksalad",[10],100
"COC(=O)c1nc(-c2ccc(Br)cc2)nc(N)c1Cl [Compound 96, methyl 6-amino-2-(4-bromophenyl)-5-chloro-4-pyrimidinecarboxylate]",melting point,,223 to 224 °C
same,"Rice, Transplanted plant response rating",[1]; 32 g ai/ha,0
same,"Rice, Transplanted plant response rating",[1]; 64 g ai/ha,0
same,"Rice, Transplanted plant response rating",[1]; 125 g ai/ha,10
same,"Rice, Transplanted plant response rating",[1]; 250 g ai/ha,20
same,"Plant response rating, Rice, Transplanted",[1],0
same,"Watergrass, Late plant response rating",[2]; 32 g ai/ha,0
same,"Watergrass, Late plant response rating",[2]; 64 g ai/ha,0
same,"Watergrass, Late plant response rating",[2]; 125 g ai/ha,0
same,"Watergrass, Late plant response rating",[2]; 250 g ai/ha,0
same,"Plant response rating, Watergrass, Late",[2],0
same,"Flatsedge, Rice plant response rating",[3]; 32 g ai/ha,100
same,"Flatsedge, Rice plant response rating",[3]; 64 g ai/ha,100
same,"Flatsedge, Rice plant response rating",[3]; 125 g ai/ha,100
same,"Flatsedge, Rice plant response rating",[3]; 250 g ai/ha,100
same,"Plant response rating, Flatsedge, Rice",[3],100
same,Barnyardgrass plant response rating,[4]; 32 g ai/ha,0
same,Barnyardgrass plant response rating,[4]; 64 g ai/ha,0
same,Barnyardgrass plant response rating,[4]; 125 g ai/ha,0
same,Barnyardgrass plant response rating,[4]; 250 g ai/ha,0
same,"Plant response rating, Barnyardgrass",[4],0
same,Junglerice plant response rating,[5]; 32 g ai/ha,0
same,Junglerice plant response rating,[5]; 64 g ai/ha,0
same,Junglerice plant response rating,[5]; 125 g ai/ha,0
same,Junglerice plant response rating,[5]; 250 g ai/ha,0
same,"Plant response rating, Junglerice",[5],0
same,"Sprangletop, Brdd. plant response rating",[6]; 32 g ai/ha,0
same,"Sprangletop, Brdd. plant response rating",[6]; 64 g ai/ha,0
same,"Sprangletop, Brdd. plant response rating",[6]; 125 g ai/ha,0
same,"Sprangletop, Brdd. plant response rating",[6]; 250 g ai/ha,0
same,"Plant response rating, Sprangletop, Brdd.",[6],0
same,"Rice, Water Seeded plant response rating",[7]; 32 g ai/ha,0
same,"Rice, Water Seeded plant response rating",[7]; 64 g ai/ha,0
same,"Rice, Water Seeded plant response rating",[7]; 125 g ai/ha,10
same,"Rice, Water Seeded plant response rating",[7]; 250 g ai/ha,10
same,"Plant response rating, Rice, Water Seeded",[7],0
same,"Watergrass, Early plant response rating",[8]; 32 g ai/ha,0
same,"Watergrass, Early plant response rating",[8]; 64 g ai/ha,0
same,"Watergrass, Early plant response rating",[8]; 125 g ai/ha,0
same,"Watergrass, Early plant response rating",[8]; 250 g ai/ha,0
same,"Plant response rating, Watergrass, Early",[8],0
same,"Sedge, Umbrella plant response rating",[9]; 32 g ai/ha,100
same,"Sedge, Umbrella plant response rating",[9]; 64 g ai/ha,100
same,"Sedge, Umbrella plant response rating",[9]; 125 g ai/ha,100
same,"Sedge, Umbrella plant response rating",[9]; 250 g ai/ha,100
same,"Plant response rating, Sedge, Umbrella",[9],100
same,Ducksalad plant response rating,[10]; 32 g ai/ha,100
same,Ducksalad plant response rating,[10]; 64 g ai/ha,100
same,Ducksalad plant response rating,[10]; 125 g ai/ha,100
same,Ducksalad plant response rating,[10]; 250 g ai/ha,100
same,"Plant response rating, Ducksalad",[10],100
